Results reported in ChEMBL document CHEMBL4813936, “Cyclopeptides from the Mushroom Pathogen Fungus Cladobotryum varium” (J Nat Prod, 2021).
Activity calls are given as the source filed them. The rule behind the calls is not given here. Where a SMILES comes first, the peptide text is derived from it. [ ]: non-standard residue; d: D form. NMeF = CN[C@@H](Cc1ccccc1)C(=O)O; Hica(2S) = CC(C)C[C@H](O)C(=O)O; βAla = NCCC(=O)O

Legend:
P388 = assay: Cytotoxicity against mouse P388 cells measure after 72 hrs by XTT assay; format: functional, cell-based
Candida albicans = assay: Antifungal activity against Candida albicans NBRC0197 assessed as reduction in microbial growth after 20 hrs by liquid microculture method; format: functional, organism-based
Ralstonia solanacearum = assay: Antibacterial activity against Ralstonia solanacearum assessed as reduction in microbial growth after 20 hrs by liquid microculture method; format: functional, organism-based
HeLa [1] = assay: Induction of autophagy in human HeLa cells expressing GFP-LC3 assessed as suppression of autolysosome formation at 10 nM measured after 24 hrs by fluorescence microscopic analysis; format: functional, cell-based
Trichophyton rubrum = assay: Antifungal activity against Trichophyton rubrum NBRC5467 assessed as reduction in microbial growth after 20 hrs by liquid microculture method; format: functional, organism-based
Kocuria rhizophila = assay: Antibacterial activity against Kocuria rhizophila ATCC9341 assessed as reduction in microbial growth after 20 hrs by liquid microculture method; format: functional, organism-based
[2] = test system: Agrobacterium tumefaciens; assay: Antibacterial activity against Rhizobium radiobacter NBRC14554 assessed as reduction in microbial growth after 20 hrs by liquid microculture method; format: functional, organism-based
HeLa [3] = assay: Induction of autophagy in human HeLa cells expressing GFP-LC3 assessed as increase in punctate structures at 10 nM measured after 24 hrs by fluorescence microscopic analysis; format: functional, cell-based
Staphylococcus aureus = assay: Antibacterial activity against Staphylococcus aureus FDA209P JC-1 assessed as reduction in microbial growth after 20 hrs by liquid microculture method; format: functional, organism-based

SMILES	Activity (P388)	Activity (Candida albicans)	Activity (Ralstonia solanacearum)	Activity (HeLa [1])	Activity (Trichophyton rubrum)	Activity (Kocuria rhizophila)	Activity [2]	Activity (HeLa [3])	Activity (Staphylococcus aureus)
CC[C@H](C)[C@@H]1NC(=O)[C@H](CC(C)C)NC(=O)[C@H](Cc2ccccc2)NC(=O)[C@@H](Cc2ccccc2)NC(=O)[C@@H](Cc2ccccc2)NC1=O	inactive	inactive	inactive	inactive	inactive	inactive	inactive	inactive	inactive
CC[C@H](C)[C@@H]1NC(=O)[C@@H]2CCCN2C(=O)[C@H](CC(C)C)OC(=O)CCNC(=O)[C@H](Cc2ccccc2)N(C)C(=O)[C@H](Cc2ccccc2)N(C)C1=O (cyclo(I[NMeF][NMeF][βAla][Hica(2S)]P))	inactive	inactive	inactive	Active	inactive	inactive	inactive	Active	inactive
CC(C)C[C@@H]1OC(=O)CCNC(=O)[C@H](Cc2ccccc2)N(C)C(=O)[C@H](Cc2ccccc2)N(C)C(=O)[C@H](C(C)C)NC(=O)[C@@H]2CCCN2C1=O (cyclo([Hica(2S)]PV[NMeF][NMeF][βAla]))	inactive	inactive	inactive	inactive	inactive	inactive	inactive	inactive	inactive
